PMC9804781, “Identification of a Novel Pseudo‐Natural Product Type IV IDO1 Inhibitor Chemotype” (Angewandte Chemie (International Ed. in English), 2022)

Columns and labels:
[1] = Ligand integrity in the crystallization drop (HPLC-ESI-MS); type: physicochemical; conditions: 63 days after the crystallization setup
Protocol: for 10 min. Protein crystals were obtained from a sitting drop setup (iQ plates, SPT Labtech, UK) by addition of 100 nL of the reservoir solution (40% (v/v) PEG200 in 100 mM MES, pH 6.5) to 100 nL of protein solution and incubation at 20°C. Crystals were harvested after 7 days by addition of reservoir solution as cryoprotectant to the drop prior to plunging of the crystals in liquid nitrogen. […]
The integrity of apoxidole-1 in the protein solution was assessed 63 days after the crystallization setup by mixing the crystallization drop with 100 µL of DCM and recording of HPLC-ESI-MS spectra using the LTQ Fleet (Thermo Fisher Scientific, US), Ultimate 3000 HPLC (Thermo Fisher Scientific, US) and Xcalibur™ software (Thermo Fish er Scientific, US). […]
(§1) (v/v) component 2 in component 1) and 50 µM Test Inhibitor (0.5% (v/v) DMSO) for 90 min at 30°C with slow shaking in the dark prior to initiation of the reaction by addition of 20% (v/v) IDO2 Substrate. Samples were incubated for 120 min at 30°C with slow shaking in the dark. […]

IDO1 protein levels = IDO1 protein levels (immunoblotting, In-Cell Western); type: cell-based; conditions: immunoblotting (HeLa, IFN-γ, 24 h) and in-Cell western
Protocol: Kit (QIAGEN, DE) following the manufacturer’s procedure. DNA was removed on column by […]
DNase digestion with RNase-free DNase Set (QIAGEN, DE) according to the manufacturer’s […]
instructions. Following the manufacturer’s protocol, cDNA templates were synthesized from […]
800 ng total RNA using the QuantiTect Reverse Transcription Kit (QIAGEN, DE).
The expression levels of the IDO1 gene and the reference GAPDH were assessed by real-time […]
quantitative PCR (qPCR). Therefore, 120 ng cDNA was amplified using 500 nM of gene-specific […]
primers and SsoAdvanced Universal SYBR Green Supermix (Bio-Rad Laboratories, DE) in a total […]
volume of 10 µL for 50 cycles using the CFX96 Touch™ Real-Time PCR Detection System (Bio- […]
Rad Laboratories, DE). Relative IDO1 expression levels were calculated using the ΔΔCt method […]
with GAPDH as reference gene[17] and represented using GraphPad Prism 9.0 (GraphPad […]
and homogenized by sonication. Protein concentration was determined using the DC Protein […]
11 µM rhIDO1 was incubated with compounds at indicated concentrations for 60 min at 37°C in 50 mM potassium phosphate buffer (16.9 mM K2HPO4, 33.1 mM, KH2PO4, pH 6.5). The thermal protein stability from 20°C to 90°C (1°C/min) was measured by means of the intrinsic tryptophan/tyrosine fluorescence using the Prometheus™ NT.48 (NanoTemper® Technologies, […]

[2] = target: T1, Recombinant human His-IDO1 (rhIDO1) (Homo sapiens, UniProt P14902); experiment: in vitro Kyn assay (IDO1 enzymatic assay); type: biochemical
T1 construct: His; made in house; host or cells: E. coli
Protocol: To detect direct inhibition, 1 µM rhIDO1 was incubated with compounds for 40 min at 37°C in 50 mM potassium phosphate buffer (16.9 mM K2HPO4, 33.1 mM, KH2PO4, pH 6.5).
Subsequently, 10 mM ascorbic acid, 10 μM methylene blue, 2 mM L-Trp and 100 μg/mL catalase were added and samples were incubated for 60 min at room temperature or 37°C. Trichloroacetic acid was added to a final concentration of 7% (v/v) and samples were incubated for 30 min at 70°C. Afterwards, an equal volume of freshly prepared 2% (w/v) p-DMAB in glacial acetic acid (Ehrlich reagent) was added prior to measuring absorbance at 492 nm and 650 nm on the Spark® Multimode Microplate Reader (Tecan, AT). To determine the Kyn levels, the absorbance of the Kyn-p-DMAB adduct A492 was subtracted by the background absorbance A650 and normalized to the DMSO control. Data analysis was performed using a non-linear regression curve fit and GraphPad Prism 9.0 (GraphPad Software, Inc, US) to generate dose-response curves and obtain

His-tagged TDO = target: T2, His-tagged TDO (Homo sapiens, UniProt P48775); experiment: TDO Activity Assay; type: biochemical; conditions: 50 µM; 120 min at 37 °C
T2 construct: His; purchased BPS Bioscience 72035 (kit)
Protocol: Inhibition of tryptophan 2,3-dioxygenase (TDO) was tested using the Universal IDO1/IDO2/TDO Inhibitor Screening Assay Kit (cat# 72035, BPS Bioscience, US). 500 ng His-tagged TDO in TDO Assay Buffer was incubated with Reaction Solution and 50 µM Test Inhibitor (0.5% (v/v) DMSO) for 120 min at 37°C with slow shaking in the dark. Afterwards, absorbance at 321 nm was recorded on the Spark® Multimode Microplate Reader (Tecan, AT), all values were subtracted by the background and normalized to the DMSO control. […]
as §1

T1 sequence (P14902 whole entry): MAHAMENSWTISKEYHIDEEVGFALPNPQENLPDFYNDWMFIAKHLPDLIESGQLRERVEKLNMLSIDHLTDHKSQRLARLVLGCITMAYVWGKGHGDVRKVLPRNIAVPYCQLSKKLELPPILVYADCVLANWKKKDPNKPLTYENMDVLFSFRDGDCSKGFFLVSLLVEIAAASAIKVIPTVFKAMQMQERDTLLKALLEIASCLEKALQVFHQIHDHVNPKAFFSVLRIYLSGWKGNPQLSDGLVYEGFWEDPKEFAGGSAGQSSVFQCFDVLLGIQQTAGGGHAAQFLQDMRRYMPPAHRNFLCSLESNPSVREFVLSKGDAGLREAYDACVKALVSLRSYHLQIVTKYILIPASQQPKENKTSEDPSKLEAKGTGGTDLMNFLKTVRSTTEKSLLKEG
T2 sequence (P48775 whole entry): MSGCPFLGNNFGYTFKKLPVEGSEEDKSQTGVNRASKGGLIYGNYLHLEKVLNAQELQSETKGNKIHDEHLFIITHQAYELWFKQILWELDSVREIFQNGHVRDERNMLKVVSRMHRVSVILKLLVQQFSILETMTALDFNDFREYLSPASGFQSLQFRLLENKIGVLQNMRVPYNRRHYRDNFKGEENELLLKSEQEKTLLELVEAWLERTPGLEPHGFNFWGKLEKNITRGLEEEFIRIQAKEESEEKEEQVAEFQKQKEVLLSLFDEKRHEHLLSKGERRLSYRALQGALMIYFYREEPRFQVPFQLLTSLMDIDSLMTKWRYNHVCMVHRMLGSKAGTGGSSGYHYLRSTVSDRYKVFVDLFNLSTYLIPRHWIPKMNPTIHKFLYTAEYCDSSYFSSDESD

SMILES: CCOC(=O)C1=CC[C@](C(=O)OC)(c2cc3ccccc3n2C)N(S(=O)(=O)c2ccc(C)cc2)[C@@H]1C(=O)OC(C)(C)C [Compound 3d]
- ligand integrity after crystallization setup [1]: still intact
- level of the IDO1 protein (IDO1 protein levels): did not alter the level of the IDO1 protein
- IDO1 enzymatic assay activity at 25 °C ([2]; 25 °C): inactive
- IDO1 activity after pre-incubation at 37 °C ([2]; holo-IDO1, 40 min at 37 °C): decreased IDO1 activity
- inhibition of TDO (result in words) (His-tagged TDO): did not inhibit
